From ChEMBL document CHEMBL3351381, “Synthesis, structure-activity relationship studies, and antibacterial evaluation of 4-chromanones and chalcones, as well as olympicin A and derivatives” (J Med Chem, 2014)
In brackets after ≈: the same amount, converted by molar mass.

What was measured:
Assay type in all cases: functional
[1] = system: Staphylococcus aureus; experiment: Antimicrobial activity against methicillin-resistant Staphylococcus aureus NRS 70 by microbroth dilution method
[2] = system: Klebsiella pneumoniae; experiment: Antimicrobial activity against Klebsiella pneumoniae ATCC 33495 at >200 ug/ml by microbroth dilution method
[3] = system: Mycobacterium tuberculosis; experiment: Antimicrobial activity against Mycobacterium tuberculosis H37Rv by microbroth dilution method
[4] = system: Escherichia coli; experiment: Antimicrobial activity against Escherichia coli K-12 by microbroth dilution method
[5] = system: Enterococcus faecalis; experiment: Antimicrobial activity against Enterococcus faecalis ATCC 33186 by microbroth dilution method
[6] = system: Escherichia coli; experiment: Antimicrobial activity against tolC-deficient Escherichia coli by microbroth dilution method
[7] = system: Pseudomonas aeruginosa; experiment: Antimicrobial activity against Pseudomonas aeruginosa PAO1 at >200 ug/ml by microbroth dilution method
[8] = system: Staphylococcus aureus; experiment: Antimicrobial activity against methicillin-sensitive Staphylococcus aureus ATCC 29213 by microbroth dilution method

Row | Structure (SMILES) | MIC [1] [µg/mL] | MIC [2] [µg/mL] | MIC [3] [µg/mL] | MIC [4] [µg/mL] | MIC [5] [µg/mL] | MIC [6] [µg/mL] | MIC [7] [µg/mL] | MIC [8] [µg/mL]
1 | CCCCCCC1CC(=O)c2c(O)cc(O)cc2O1 (centres undefined) | 6.25 (≈ 23.6 µM) | > 200 | 50 (≈ 189 µM) | > 200 | 100 (≈ 378 µM) | 3.13 (≈ 11.8 µM) | > 200 | –
2 | CCCCCCCCCC1CC(=O)c2c(OCOC)cc(OCOC)cc2O1 (centres undefined) | > 200 | > 200 | 100 (≈ 253 µM) | > 200 | > 200 | > 200 | > 200 | > 200
3 | CCCCCCCCCC1C/C(=N\OCc2ccccc2)c2c(O)cc(O)cc2O1 (centres undefined) | > 200 | > 200 | > 200 | > 200 | 50 (≈ 121 µM) | > 200 | > 200 | > 200
4 | C=CCOc1ccccc1/C=C/C(=O)c1c(O)cc(O)cc1O | 25 (≈ 80 µM) | > 200 | > 200 | > 200 | 50 (≈ 160 µM) | 12.5 (≈ 40 µM) | > 200 | > 200
5 | C=CCOc1ccccc1C1CC(=O)c2ccc(O)cc2O1 (centres undefined) | 25 (≈ 84.4 µM) | > 200 | 100 (≈ 337 µM) | > 200 | 50 (≈ 169 µM) | 12.5 (≈ 42.2 µM) | > 200 | 25 (≈ 84.4 µM)
6 | CCCC1CC(=O)c2ccc(O)cc2O1 (centres undefined) | > 200 | > 200 | 200 (≈ 970 µM) | > 200 | > 200 | 50 (≈ 242 µM) | > 200 | 200 (≈ 970 µM)
7 | CCCCCCOc1cc(O)cc(O)c1C(=O)C(C)CC (racemic) | 1.56 (≈ 5.3 µM) | > 200 | 100 (≈ 340 µM) | > 200 | 1.56 (≈ 5.3 µM) | 3.13 (≈ 10.6 µM) | > 200 | 1.56 (≈ 5.3 µM)
8 | COCOc1ccc(C(=O)/C=C/C2=CCC3CC2C3(C)C)c(O)c1 (centres undefined) | > 200 | > 200 | 100 (≈ 304 µM) | > 200 | > 200 | 25 (≈ 76.1 µM) | > 200 | > 200
9 | C=CCOc1ccccc1/C=C/C(=O)c1ccc(O)cc1 | 6.25 (≈ 22.3 µM) | > 200 | 200 (≈ 713 µM) | > 200 | 100 (≈ 357 µM) | 6.25 (≈ 22.3 µM) | > 200 | 12.5 (≈ 44.6 µM)
10 | CCCCCCC1CC(=O)c2ccc(O)cc2O1 (centres undefined) | > 200 | > 200 | 50 (≈ 201 µM) | > 200 | > 200 | 3.13 (≈ 12.6 µM) | > 200 | > 200
11 | O=C(N[C@H](CO)[C@H](O)c1ccc([N+](=O)[O-])cc1)C(Cl)Cl [CHLORAMPHENICOL] | 1.56 (≈ 4.83 µM) | > 200 | – | 3.13 (≈ 9.69 µM) | 0.78 (≈ 2.41 µM) | 0.39 (≈ 1.21 µM) | > 200 | 3.13 (≈ 9.69 µM)
12 | CCCCCCCC1CC(=O)c2c(OCOC)cc(OCOC)cc2O1 (centres undefined) | > 200 | > 200 | 50 (≈ 136 µM) | > 200 | > 200 | 12.5 (≈ 34.1 µM) | > 200 | > 200
13 | O=C1CC(C2CCCCC2)Oc2cc(O)cc(O)c21 (centres undefined) | 25 (≈ 95.3 µM) | > 200 | 100 (≈ 381 µM) | > 200 | 25 (≈ 95.3 µM) | 6.25 (≈ 23.8 µM) | > 200 | 25 (≈ 95.3 µM)
14 | O=C1CC(c2ccc(N3CCCCC3)cc2)Oc2cc(O)ccc21 (centres undefined) | > 200 | > 200 | > 200 | > 200 | 200 (≈ 618 µM) | 12.5 (≈ 38.7 µM) | > 200 | > 200
15 | COCOc1cc(OCOC)c2c(c1)OC(CC(C)CCC=C(C)C)CC2=O (centres undefined) | > 200 | > 200 | > 200 | > 200 | > 200 | > 200 | > 200 | > 200
16 | NC[C@H]1O[C@H](O[C@H]2[C@H](O)[C@@H](O[C@H]3O[C@H](CO)[C@@H](O)[C@H](N)[C@H]3O)[C@H](N)C[C@@H]2N)[C@H](O)[C@@H](O)[C@@H]1O [KANAMYCIN] | 50 (≈ 103 µM) | > 200 | – | 3.13 (≈ 6.46 µM) | 25 (≈ 51.6 µM) | < 0.2 | > 200 | 1.56 (≈ 3.22 µM)
17 | O=C1CC(CCc2ccccc2)Oc2cc(O)ccc21 (centres undefined) | 50 (≈ 186 µM) | > 200 | 100 (≈ 373 µM) | > 200 | > 200 | 12.5 (≈ 46.6 µM) | > 200 | 50 (≈ 186 µM)
18 | CC1(C)C2CC=C(C3CC(=O)c4c(O)cc(O)cc4O3)C1C2 (centres undefined) | 6.25 (≈ 20.8 µM) | > 200 | 200 (≈ 666 µM) | > 200 | 12.5 (≈ 41.6 µM) | 3.13 (≈ 10.4 µM) | > 200 | 12.5 (≈ 41.6 µM)
19 | O=C1CC2(CCCCC2)Oc2cc(O)ccc21 | 200 (≈ 861 µM) | > 200 | 100 (≈ 431 µM) | > 200 | > 200 | 50 (≈ 215 µM) | > 200 | 200 (≈ 861 µM)
20 | C=CCOc1ccccc1C1CC(=O)c2c(O)cc(O)cc2O1 (centres undefined) | 12.5 (≈ 40 µM) | > 200 | > 200 | > 200 | 50 (≈ 160 µM) | 6.25 (≈ 20 µM) | > 200 | 25 (≈ 80 µM)
21 | NNC(=O)c1ccncc1 [ISONIAZID] | – | – | 0.03 (≈ 0.219 µM) | – | – | – | – | –
22 | CCCC1CC(O)c2ccc(O)cc2O1 (centres undefined) | 50 (≈ 240 µM) | > 200 | 12.5 (≈ 60 µM) | > 200 | 100 (≈ 480 µM) | 50 (≈ 240 µM) | > 200 | 50 (≈ 240 µM)
23 | C=CCOc1cccc(/C=C/C(=O)c2ccc(O)cc2O)c1 | 12.5 (≈ 42.2 µM) | > 200 | 50 (≈ 169 µM) | > 200 | > 200 | 3.13 (≈ 10.6 µM) | > 200 | 6.25 (≈ 21.1 µM)
24 | CC(C)=CCCC(C)CC1CC(=O)c2c(O)cccc2O1 (centres undefined) | > 200 | > 200 | > 200 | > 200 | > 200 | > 200 | > 200 | > 200
25 | C=CCOc1ccc(/C=C/C(=O)c2ccc(O)cc2O)cc1 | > 200 | > 200 | 50 (≈ 169 µM) | > 200 | 100 (≈ 337 µM) | > 200 | > 200 | 25 (≈ 84.4 µM)
26 | CCC(C)C(=O)c1c(O)cc(O)cc1OC/C=C(\C)CCC=C(C)C (racemic) | 3.13 (≈ 9.03 µM) | > 200 | 200 (≈ 577 µM) | – | – | > 200 | > 200 | –
27 | CC1(C)S[C@@H]2[C@H](NC(=O)[C@H](N)c3ccccc3)C(=O)N2[C@H]1C(=O)O [AMPICILLIN] | 12.5 (≈ 35.8 µM) | > 200 | – | 3.13 (≈ 8.96 µM) | 0.78 (≈ 2.23 µM) | 1.56 (≈ 4.46 µM) | > 200 | 1.56 (≈ 4.46 µM)
28 | C=CCOc1cc(O)cc(O)c1C(=O)C(C)CC (racemic) | 6.25 (≈ 25 µM) | > 200 | 100 (≈ 400 µM) | > 200 | – | 3.13 (≈ 12.5 µM) | > 200 | –
29 | C=CCOc1cc(O)cc(O)c1C(=O)[C@@H](C)CC | 12.5 (≈ 49.9 µM) | > 200 | – | – | 12.5 (≈ 49.9 µM) | 3.13 (≈ 12.5 µM) | > 200 | 12.5 (≈ 49.9 µM)
